Values joined by “and” are separate entries in the source; they are usually repeats but may differ in a detail not shown here. Identical values can stand only once.
Legend:
Assay type in all cases: biochemical, Colletotrichum sp. M5073
L-amino acid oxidase [1] = experiment: Substrate specificity of L-amino acid oxidase (enzyme activity measurement, H2O2 colorimetry); conditions: for Relative activity (%) on substrate: 5 m mole of the substrate, 0.007 U of the enzyme, 37° C., 10 minutes, L-Leucine = 100
Protocol: (§1) 0.9 ml of a reaction solution of the following composition is placed in a small test tube and warmed to 37° C.
(§2) 0.1 ml of a liquid containing L-amino acid oxidase is added thereto and reaction continued for exactly for 10 minutes at 37° C. The reaction was terminated by adding 2.0 ml of ethanol. Then, the amount of hydrogen peroxide formed is colorimetrically determined from absorbance measured at 480 nm. The enzymatic activity is determined from the amount of the hydrogen peroxide formed with the following equation: […]
(§3) The amount of the enzyme which produces 1μ mole of hydrogen peroxide at 37° C. in one minute is defined as one unit (1 U).
Enzymatic activities of the enzyme on various substrates as shown in the Table 1 below are measured with the same procedures as the measurement of the enzyme activity by using 5 m mole of the substrate and 0.007 U of the enzyme.

L-amino acid oxidase [2] = experiment: Inhibition and activation of L-amino acid oxidase by metallic ions or other additives; conditions: 1 mM additive, 0.01 U of the enzyme; None = 100
Protocol: as §1, §2, §3
The enzymatic activities of the enzyme are measured with the same procedures as the measurement of the enzyme activity using 0.01 U of the enzyme, and adding 1 mM of various metallic ions or other additives as shown in Table 2 below to the reaction solution. Cyano ion has a strong inhibiting effect on the enzyme and no ion is found to have an activating effect on the enzyme.

L-amino acid oxidase [3] = experiment: Km value of L-amino acid oxidase; conditions: upon L-leucine

| SMILES | Relative activity (%) on substrate (L-amino acid oxidase [1]) | Relative activity (%) with additive (L-amino acid oxidase [2]) | also measured |
| --- | --- | --- | --- |
| CC[C@H](C)[C@H](N)C(=O)O (racemic) [DL-Isoleucine] | 15.3% | – | – |
| NC(Cc1c[nH]c2ccccc12)C(=O)O (racemic) [DL-Tryptophan] | 27.1% | – | – |
| [Ba+2].[Cl-].[Cl-] [BaCl2] | – | 97.1% | – |
| [Ca+2].[Cl-].[Cl-] [CaCl2] | – | 95.4% | – |
| [Cl-].[Cl-].[Co+2] [CoCl2] | – | 50.6% | – |
| C[C@@H](N)C(=O)O [D-Alanine] | 0.0% | – | – |
| N[C@H](Cc1ccccc1)C(=O)O [D-Phenylalanine] | 0.0% | – | – |
| O=C(O)CN(CCN(CC(=O)O)CC(=O)O)CC(=O)O [EDTA] | – | 100% | – |
| C[C@H](N)C(=O)O [L-Alanine] | 12.3% | – | – |
| N=C(N)NCCC[C@H](N)C(=O)O [L-Arginine] | 39.9% | – | – |
| N[C@@H](CC(=O)O)C(=O)O [L-Aspartic acid] | 0.0% | – | – |
| N[C@@H](CS)C(=O)O [L-Cysteine] | 6.4% and 0.0% | – | – |
| N[C@@H](CCC(=O)O)C(=O)O [L-Glutamic acid] | 0.0% | – | – |
| NCC(=O)O [L-Glycin] | 0.0% | – | – |
| N[C@@H](Cc1c[nH]cn1)C(=O)O [L-Histidine] | 11.8% | – | – |
| CC[C@H](C)[C@H](N)C(=O)O [L-Isoleucine] | 29.1% | – | – |
| CC(C)C[C@H](N)C(=O)O [L-Leucine] | 100.0% | – | Enzyme acts upon substrate (L-amino acid oxidase [1]): acts upon; Km (L-amino acid oxidase [3]): 170 µM |
| NCCCC[C@H](N)C(=O)O [L-Lysine] | 29.6% | – | – |
| CSCC[C@H](N)C(=O)O [L-Methionine] | 93.6% | – | – |
| N[C@@H](Cc1ccccc1)C(=O)O [L-Phenylalanine] | 70.0% | – | – |
| N[C@@H](CO)C(=O)O [L-Serine] | 0.0% | – | – |
| N[C@@H](Cc1ccc(O)cc1)C(=O)O [L-Tyrosine] | 22.2% | – | – |
| [Cl-].[Li+] [LiCl] | – | 97.5% | – |
| [Cl-].[Cl-].[Mg+2] [MgCl2] | – | 99.2% | – |
| [Cl][Mn][Cl] [MnCl2] | – | 97.1% | – |
| Cl.N [NH4 Cl] | – | 97.1% | – |
| [F-].[Na+] [NaF] | – | 97.9% | – |
| [N-]=[N+]=[N-].[Na+] [NaN3] | – | 100% | – |
| [Cl-].[Cl-].[Zn+2] [ZnCl2] | – | 94.2% | – |

Source: patent US4357425A, “Process for producing L-amino acid oxidase” (Toyo Jozo Company, Ltd., priority 1980, dated 1982)
